Publication PMC6028423, “Synthetic molecular evolution of hybrid cell penetrating peptides” (Nature Communications, 2018)

Assays:
[1] = system: RAW264.7 cells; experiment: TAMRA delivery assay, flow cytometry; assay type: cell-based; settings: tested as peptide-TA; 0.5 µM peptide-TA + 4.5 µM peptide-C, 30 min, serum-free DMEM, trypsinized, live SYTOX Green-negative cells; temperature not given
Procedure: (§1) Parent and daughter sequences lacking the PNA cargo were characterized to determine the effect of the cargo on delivery. Sequences were labeled with the fluorophore tetramethylrhodamine (TAMRA) on a C-terminal cysteine residue (PDEP-TA) and their delivery to multiple human cell types was measured by flow cytometry. To test the efficiency under stringent conditions, we used peptide concentrations of only 5 μM total containing 0.5 μM dye-labeled peptide. Peptides were incubated with HeLa, RAW264.7, HepG2, and MCF-7 cells for 30 min at 4 °C, 21 °C, or 37 °C, followed by trypsinization to detach cells for counting and to digest any externally bound peptide. PDEP-TA conjugates are not toxic at this concentration range (Supplementary Figure 2). […]
(§2) HeLa, RAW264.7, HCT116, HepG2, and MCF-7 cells were plated in 12-well plates at 100,000 cells/well. […] Cells were transferred to a filter-topped flow cytometry tube and analyzed on a BD LSR II flow cytometer. Cells displaying a normal morphology were gated and first analyzed for GFP fluorescence using the […] laser. GFP-negative cells were used to generate a histogram of TAMRA fluorescence, measured with the 543 nM laser.
Supplementary Figure 4. […] The percent of the remaining cells testing positive for TAMRA fluorescence were defined as those with a fluorescence value ≥3000. Additionally, the mean fluorescence for all SYTOX negative cells was recorded.

[2] = system: HeLa pTRE-LucIVS2-705 cells; experiment: PNA705 mediated luciferase splice correction (luminescence per µg protein); assay type: cell-based, human; settings: for PNA705 delivery efficiency in words (Fig. 2a): tested as CPP-PNA705 conjugate, up to 5 µM
Procedure: Cells were treated for 30 min in serum-free media at 37 °C, and then allowed to recover for 24 h in complete media. […] After 24 h, cell lysates were assayed for luciferase by luminescence (Fig. 2a) and for splice corrected mRNA by quantitative PCR (Fig. 2b). To control for total cell density, lysates were also analyzed for total protein by the BCA assay.
HeLa pTRE-LucIVS2-705 cells were seeded on flat-bottom 96-well plates at 10,000 cells per well in 200 µl complete DMEM. The following day, cells were washed in phosphate buffered saline and topped with premixed 50 µl 2× serum/phenol red-free DMEM (Gibco) + 50 µl peptide cleavage solution (ddH2O + peptide). Cells were transfected for 30 min at 37 °C with 5% CO2. The transfection solution was removed, cells were topped with 100 µl complete DMEM. The next day (24-h recovery) cells were washed in PBS. Cells were lysed in 20 µl reporter lysis buffer (Promega E4030) following the manufacturer’s protocol. A volume of 10 μl of lysate from each well was transferred to a 96-well solid black plate; 100 μl of luciferase assay reagent from the Luciferase Assay System (Promega E1500) was added, the plate was agitated for 10 s, and luminescence was measured with a BioTek Synergy 2 plate reader with injector ports. Total protein was measured with a BCA assay (described below). Data were expressed as RLU per µg protein (RLU (µg protein)^−1). During screening, positive wells were defined as those whose RLU per µg protein values exceeded the average for the plate by at least three standard deviations. Subsequent PNA705 delivery experiments were conducted as described above except that volumes were scaled for 24-well plate format.
The remaining 10 µl of lysate from the splice correction assay was combined with 100 µl of the BCA reagents and incubated for 1–4 h at 37 °C per the manufacturer’s protocol. Absorbance at 562 nm was measured using a measured with a BioTek Synergy 2 plate reader.

[3] = system: HepG2 cells; experiment: TAMRA delivery assay, flow cytometry; assay type: cell-based, human; settings: tested as peptide-TA; 0.5 µM peptide-TA + 4.5 µM peptide-C, 30 min, serum-free DMEM, trypsinized, live SYTOX Green-negative cells; temperature not given
Procedure: (§3) Parent and daughter sequences lacking the PNA cargo were characterized to determine the effect of the cargo on delivery. Sequences were labeled with the fluorophore tetramethylrhodamine (TAMRA) on a C-terminal cysteine residue (PDEP-TA) and their delivery to multiple human cell types was measured by flow cytometry. To test the efficiency under stringent conditions, we used peptide concentrations of only 5 μM total containing 0.5 μM dye-labeled peptide. Peptides were incubated with HeLa, RAW264.7, HepG2, and MCF-7 cells for 30 min at 4 °C, 21 °C, or 37 °C, followed by trypsinization to detach cells for counting and to digest any externally bound peptide. PDEP-TA conjugates are not toxic at this concentration range (Supplementary Figure 2). Flow cytometric analysis (Fig. 3 and Supplementary Figure 4) was used to count TAMRA-positive cells and to measure TAMRA intensity distributions. Confocal microscopy was used to visualize peptide distribution in cells for each cell type (Fig. 3). Time series confocal images of PDEP P17-TA incubated HeLa cells at 21 °C and 37 °C (Fig. 3a) show immediate punctate membrane association. At 37 °C, but not at 21 °C, uptake of dye in punctate structures is observed. At both temperatures, individual cells rapidly and stochastically show the appearance of TAMRA with a diffuse cytosolic distribution in addition to bright puncta. All PDEPs behave similarly and maximum intensity is reached by 30 min at all temperatures. Cell surface-bound peptide is not observed under flow cytometry conditions (Fig. 3a).
as §2, with “cells/well. After 24 h, cells were gently washed in PBS, topped with 500 µl of PDEP-TA solution containing 0.5 µM PDEP-TA + 4.5 µM PDEP-C in sfDMEM without phenol red, and incubated for 30 min at either 4 °C, 23 °C, or 37 °C.” for “cells/well.”
(§4) Supplementary Figure 4. Flow cytometry gating strategy for Peptide-C-TA treated cells. In this example, HeLa cells were treated with 5 μM P17-C-TA for 30 minutes at 37°C. Live cells were identified by forward and side scatter. Doublets were excluded in two gating steps using SSC-H x SSC-W and FSC-H x FSC-W. Cells with compromised membranes permitting SYTOX green entry were excluded. The percent of the remaining cells testing positive for TAMRA fluorescence were defined as those with a fluorescence value ≥3000. Additionally, the mean fluorescence for all SYTOX negative cells was recorded.

[4] = system: MCF-7 cells; experiment: TAMRA delivery assay, flow cytometry; assay type: cell-based, human; settings: tested as peptide-TA; 0.5 µM peptide-TA + 4.5 µM peptide-C, 30 min, serum-free DMEM, trypsinized, live SYTOX Green-negative cells; temperature not given
Procedure: as §3
as §2, with “cells/well. After 24 h, cells were gently washed in PBS, topped with 500 µl of PDEP-TA solution containing 0.5 µM PDEP-TA + 4.5 µM PDEP-C in sfDMEM without phenol red, and incubated for 30 min at either 4 °C, 23 °C, or 37 °C.” for “cells/well.”
as §4

[5] = system: HeLa cells; experiment: TAMRA delivery assay, flow cytometry; assay type: cell-based, human; settings: tested as peptide-TA; 0.5 µM peptide-TA + 4.5 µM peptide-C, 30 min, serum-free DMEM, trypsinized, live SYTOX Green-negative cells; temperature not given
Procedure: as §3
as §2, with “cells/well. After 24 h, cells were gently washed in PBS, topped with 500 µl of PDEP-TA solution containing 0.5 µM PDEP-TA + 4.5 µM PDEP-C in sfDMEM without phenol red, and incubated for 30 min at either 4 °C, 23 °C, or 37 °C.” for “cells/well.”
as §4

[6] = system: HeLa pTRE-LucIVS2-705 cells; experiment: qRT-PCR of correctly spliced luciferase mRNA; assay type: cell-based, human; settings: 1.25 µM CPP-PNA705, 30-min incubation, 24-h recovery
Procedure: To quantify splice correction at the mRNA level, we designed qRT-PCR primers to target the splice junction of the properly spliced mRNA transcript. […] We observe a >100 fold increase in properly spliced luciferase mRNA in cells treated with PDEP–PNA705 relative to control. At 5 μM, the most efficient chimera, P14-PNA705, is 30-fold better than tat, 7-fold better than penetratin, and 4-fold better than Arg9.
HeLa pTRE-LucIVS2 cells were treated as described above with PDEP–PNA705 constructs at varying concentrations. RNA was extracted using the Direct-Zol^TM RNA purification system (Zymo Research) and reverse transcribed with the iScript cDNA synthesis kit (Bio-Rad), and mRNA splice correction was detected using PowerUp SYBR Green master mix (ThermoFisher) on an Applied Biosystems QuantStudio 6 using the following primers sets: […]
The relative quantification of correctly spliced mRNA (90 bp amplicon) over background was calculated using the Pfaffl model.

[7] = system: HeLa, RAW264.7, HepG2, and MCF-7 cells; experiment: TAMRA delivery, flow cytometry and confocal microscopy, statements over several cell types or cell type not stated; assay type: cell-based; settings: cell type and temperature not stated; threshold just above cells treated with free TAMRA; single example
Procedure: as §1, with “[…].” for “PDEP-TA conjugates are not toxic at this concentration range (Supplementary Figure 2).”
HeLa, RAW264.7, HCT116, HepG2, and MCF-7 cells were plated in 12-well plates at 100,000 cells/well. […] Cells were transferred to a filter-topped flow cytometry tube and analyzed on a BD LSR II flow cytometer. Cells displaying a normal morphology were gated and first analyzed for GFP fluorescence using the […] laser. GFP-negative cells were used to generate a histogram of TAMRA fluorescence, measured with the […] laser. […]
Cells were treated as described above for the TAMRA delivery assay and immediately imaged to avoid artifacts resulting from fixation. The distribution of TAMRA and Sytox Green was analyzed using a confocal scanning Nikon Eclipse Ti2 inverted microscope using a 40× oil-immersion objective. […]

Compound | RAW %+ (TAMRA-positive cells) [1] [%] | PNA705 delivery efficiency in words (Fig. 2a) [2] | HEPG2 %+ (TAMRA-positive cells) [3] [%] | MCF-7 %+ (TAMRA-positive cells) [4] [%] | HeLa %+ (TAMRA-positive cells) [5] [%] | increase in corrected mRNA over control [6] | TAMRA-positive cells, example flow cytometry results (Fig. 3b) [7] [%] | PNA705 delivery efficiency, head-to-head comparison in the response to reviewers ([2]; PepB-PNA705, P17-PNA705, tat-PNA705 and no treatment, same approach as in the paper)
Arg9 | 64.5 | much better than tat itself | 16.6 | 1.6 | 8.1 | not measurably higher than control |  | 
CN(C)c1ccc2c(-c3ccccc3C(=O)[O-])c3ccc(N(C)C)cc3[o+]c2c1 [TAMRA, tetramethylrhodamine] | 6.90 |  | 0.0 | 14.4 | 0.0 |  | 1.99 | 
(RXRRBR)2 [Peptide B, (RXRRBR)2, eight arginines and four linear linkers; drives delivery of splice correcting PMOs in vivo] |  | relatively low PNA delivery efficiency |  |  |  |  |  | much more efficient than tat
